Measurements published in patent publication US20220241416A1, “METHODS FOR THE IDENTIFICATION OF SARM1 NADASE ACTIVITY INHIBITORS AND USES THEREOF” (Bar Ilan University, priority 2021, published 2022).

Columns and labels:
[1] = target: T1, hSARM1 (Homo sapiens, UniProt Q6SZW1); test: High-throughput resazurin fluorescence inhibitor screen; format: biochemical; conditions: 1 mM NAM; pre-incubation 10 minutes at room temperature
T1 construct: hSARM1w.t; (26ERL . . . GPT724) that was not mutated in E642, was also expressed and isolated; 6xHis (N); TEV cleavage site (N); made in house; host or cells: HEK293F suspension cells
T1 sequence (Q6SZW1 with tags, fused parts or gaps): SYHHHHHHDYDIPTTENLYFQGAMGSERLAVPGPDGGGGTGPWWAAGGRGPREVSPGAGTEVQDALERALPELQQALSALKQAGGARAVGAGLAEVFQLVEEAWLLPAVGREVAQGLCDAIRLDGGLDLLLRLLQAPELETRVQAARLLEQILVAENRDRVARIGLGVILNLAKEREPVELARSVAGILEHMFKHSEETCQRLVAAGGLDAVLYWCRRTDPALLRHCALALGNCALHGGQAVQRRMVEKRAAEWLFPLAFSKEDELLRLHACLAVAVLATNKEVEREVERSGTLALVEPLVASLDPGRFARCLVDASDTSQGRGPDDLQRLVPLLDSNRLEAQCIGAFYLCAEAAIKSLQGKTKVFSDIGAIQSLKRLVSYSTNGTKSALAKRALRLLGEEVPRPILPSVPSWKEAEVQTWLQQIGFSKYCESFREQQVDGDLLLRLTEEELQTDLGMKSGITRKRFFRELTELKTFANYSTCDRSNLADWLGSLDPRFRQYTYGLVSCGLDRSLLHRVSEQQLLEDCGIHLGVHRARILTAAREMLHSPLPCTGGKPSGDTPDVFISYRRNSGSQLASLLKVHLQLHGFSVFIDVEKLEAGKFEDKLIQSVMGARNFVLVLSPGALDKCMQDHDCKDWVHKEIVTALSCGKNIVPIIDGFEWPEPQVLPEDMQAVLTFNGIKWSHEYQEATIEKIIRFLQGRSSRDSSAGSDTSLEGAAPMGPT
Procedure: The high-throughput inhibitor-screening assay was preformed using the MultiDrop 384 microplate dispenser (Thermo Scientific) and 1536-well black/black non-binding Microplates (Greiner Bio-One).
First, 10 nano-liters of each of the 142000 screened compounds, solubilized in DMSO, were plated using Echo® 550 Liquid Handler (Sunny vale, CA, USA). Then. 5 micro liters of purified SARM1 (at 50 Nano-Molar concentration) in 25 mM HEPES pH 7.5, 150 mM NaCl were added to each well for 10 minutes incubation in 25° C. Next, 2.5 Micro Liters of NAD+(in 0.25 Micro-Molar concentration, in 25 mM HEPES pH 7.5, 150 mM NaCl) were added to each well and incubated for 70 min at 37° C. The compounds concentration at this point were […].
Measurement of NAD+ concentrations were made by a modified enzymatic coupled cycling assay. […] Fluorescent signals were measured by PheraStar FS plate reader (BMG Labtech, Ortenberg, Germany) at 540-nm excitation and 590-nm emission wavelengths. […]
To discover new and effective inhibitors for hSARM1, we have applied a modified fluorescence assay for high throughput screening. The adaptations introduced in this assay aim to achieve: stable fluorescent signal over time, good sensitivity for inhibition by screened compounds, high signal-to-noise, good reproducibility, accuracy, and diminishing of false-positive readouts. […]

[2] = target: T2, zfSARM1 (Danio rerio, UniProt F1QWA8); test: Effect of hSARM1 inhibitors on zfSARM1 NADase activity (ADPR by HPLC); format: biochemical, Zebrafish; conditions: 50 μM NAD+; ADPR production by HPLC
T2 sequence (F1QWA8 1-713): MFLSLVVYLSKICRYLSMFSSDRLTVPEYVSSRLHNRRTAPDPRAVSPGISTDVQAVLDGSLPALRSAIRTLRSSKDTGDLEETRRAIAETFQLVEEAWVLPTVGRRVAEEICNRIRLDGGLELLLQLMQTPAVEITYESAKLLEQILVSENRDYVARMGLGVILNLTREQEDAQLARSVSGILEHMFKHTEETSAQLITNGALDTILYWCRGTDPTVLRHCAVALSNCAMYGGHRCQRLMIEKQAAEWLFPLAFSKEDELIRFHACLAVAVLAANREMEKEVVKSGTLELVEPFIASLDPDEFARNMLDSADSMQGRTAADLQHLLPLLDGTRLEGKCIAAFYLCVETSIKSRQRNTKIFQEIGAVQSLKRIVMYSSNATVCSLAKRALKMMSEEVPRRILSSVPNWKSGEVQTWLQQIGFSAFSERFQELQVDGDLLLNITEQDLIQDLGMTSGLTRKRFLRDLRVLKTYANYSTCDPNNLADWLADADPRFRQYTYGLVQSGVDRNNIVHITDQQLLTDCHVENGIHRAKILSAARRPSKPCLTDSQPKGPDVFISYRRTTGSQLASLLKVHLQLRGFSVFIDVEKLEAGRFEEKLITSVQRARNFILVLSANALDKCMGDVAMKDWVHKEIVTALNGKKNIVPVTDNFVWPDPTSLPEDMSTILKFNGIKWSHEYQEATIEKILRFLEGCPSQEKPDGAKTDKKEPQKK

NC(=O)c1cccnc1 [NAM, nicotinamide, reference compound]
fluorescence output response [1]: hSARM1 inhibition
IC50 [2]: 227 µM
